Data published in ChEMBL document CHEMBL1132824, “Highly specific inhibitory effect of three-component hybrid liposomes including sugar surfactants on the growth of glioma cells” (Bioorg Med Chem Lett, 2000).

Tests used:
U-251 [1] = assay: Compound along with Tween 20 and SucCn was evaluated for inhibitory effect on growth of glioma (U251) cells; Effective; assay type: functional, cell-based; conditions: Homo sapiens
U-251 [2] = assay: Compound alone was evaluated for inhibitory effect on growth of glioma (U251) cells; Ineffective; assay type: functional, cell-based; conditions: Homo sapiens

CCCCCCCCCC(=O)OC[C@@H]1OC(O[C@]2(CO)OC(CO)C(O)[C@@H]2O)[C@@H](O)[C@H](O)[C@H]1O (single isomer, unassigned)
Activity (U-251 [1]): Effective
Activity (U-251 [2]): Ineffective

CCCCCCCCCCCCCC(=O)OCC(COP(=O)([O-])OCC[N+](C)(C)C)OC(=O)CCCCCCCCCCCCC (stereo unspecified)
Activity (U-251 [1]): Effective
Activity (U-251 [2]): Ineffective

CCCCCCCCCCCC(=O)OC[C@@H]1O[C@H](O[C@]2(CO)O[C@H](CO)[C@@H](O)[C@@H]2O)[C@@H](O)[C@@H](O)[C@@H]1O
Activity (U-251 [1]): Effective
Activity (U-251 [2]): Ineffective
